Assay results from US20260226105A1, “Antimicrobial And Antibiofilm Peptides Sequences With Metal-Binding Motifs” (The Trustee of the University of Pennsylvania, priority 2021, published 2026).
Several values for one entry are separate records, joined by “and”; a condition that tells them apart may be missing. Equal entries are not always repeated. Where two headings read alike, the source gives them in different places. Ends that are not written are not given here.

Key:
[1] = test system: E. coli (ATCC 25922); conditions: for MIC in Cu(II) supplemented medium: Cu(II) supplemented medium (0.25 μM); for MIC: MH broth, 12 h, 37° C.
[2] = test system: E. coli (KpC+ 1812446); conditions: MH broth, 12 h, 37° C.
[3] = test system: K. pneumoniae (ATCC13883); conditions: Table 3, agent alone
[4] = test system: K. pneumoniae (KpC+ 1825971); conditions: for MIC in Cu(II) supplemented medium: Cu(II) supplemented medium (0.25 μM); for MIC: MH broth, 12 h, 37° C.
[5] = test system: K. pneumoniae (ATCC13883); conditions: agent alone, BM2 minimal medium
[6] = test system: E. coli (ATCC25922); conditions: Table 3, agent alone
[7] = test system: E. coli (KpC1812446); conditions: Table 3, agent alone
[8] = test system: E. coli (KpC+1812446) biofilm; conditions: Biofilm
[9] = test system: E. coli MG1655; conditions: for MIC, TETA: cell-impermeable Cu(II) chelator triethylenetetramine (TETA) 200 μM; for MIC, TTM: cell-permeable Cu(II) chelator tetrathiolmolybdate (TTM) 200 μM
[10] = test system: MRSA (3730529); conditions: MH broth, 12 h, 37° C.
[11] = test system: E. coli (KpC+ 2101123); conditions: for MIC in Cu(II) supplemented medium: Cu(II) supplemented medium (0.25 μM); for MIC: MH broth, 12 h, 37° C.
[12] = test system: K. pneumoniae (ATCC 13883); conditions: MH broth, 12 h, 37° C.
[13] = test system: E. coli (KpC+1812446) planktonic cells; conditions: Planktonic
[14] = test system: E. coli KpC+1812446; type: in vivo, mice; conditions: for in vivo toxicity: infected Balb/C mice, 5 and 10 mg·Kg^−1
Method: Male Balb/C (18-20 g) mice from the Biotério Central do Campus da USP in Ribeirão Preto, São Paulo, were kept in groups of 5 per cage at 22° C. with normal cycles of light and free access to food and water. The care and use of the animals were approved by the Ethics Committee of Universidade Católica Dom Bosco number 019/2016. We assessed the ability of the peptides to protect the mice from lethal systemic infections induced with E. coli KpC+1812446. The mice (n=40) were randomly placed into eight groups of five mice each, and each mouse was injected intraperitoneally with 200 μL of saline solution containing 2×10^7 CFU of E. coli KpC+1812446. Intraperitoneal treatment with 5 or 10 mg·Kg^−1 of each peptide was initiated after one hour of infection and repeated at 24 h intervals for seven days^61. Gentamicin at 10 mg·Kg^−1 of body weight and normal saline were used as positive and negative controls, respectively.

[15] = test system: S. aureus (ATCC 25923); conditions: for MIC in Cu(II) supplemented medium: Cu(II) supplemented medium (0.25 μM); for MIC: MH broth, 12 h, 37° C.
[16] = test system: E. coli (ATCC 25922); conditions: agent alone, BM2 minimal medium
[17] = test system: K. pneumoniae (KpC1825971); conditions: Table 3, agent alone
[18] = test system: K. pneumoniae (KpC1825971); conditions: agent alone, BM2 minimal medium
[19] = test system: P. aeruginosa (ATCC 27853); conditions: MH broth, 12 h, 37° C.
[20] = test system: E. coli (KpC1812446); conditions: agent alone, BM2 minimal medium

Row | Sequence | MIC in Cu(II) supplemented medium [1] | MIC [1] | MIC [2] | MIC [3] | MIC in Cu(II) supplemented medium [4] | MIC [4] | MBIC [5] | MIC [6] | MIC [7] | FICI ([8]; peptide + AmP) | FICI ([8]; peptide + CHL) | FICI ([8]; peptide + MER) | FICI ([8]; peptide + STR) | FICI ([8]; peptide + TRI) | MIC, TETA [9] | MIC, TTM [9] | MIC, No Chelator [9] | MIC [10] | MIC in Cu(II) supplemented medium [11] | MIC [11] | also measured
1 | GGHKWKLFKKIGAVLKVL [GGH-CM15] | 2 µM | 2 µM | 2 µM | >32 µM | 2 µM | 2 µM | >32 µM | 4 µM | 8 µM | 2.0 | 2.0 | 0.27 | 0.78 and 0.75 | 1.5 | 2 µM | 32 µM | 1 µM | 2 µM | 2 µM | 2 µM | MIC [12]: 1 µM; FICI ([13]; peptide + AmP): 1.52 and 1.5; FICI ([13]; peptide + CHL): 0.5 and 0.5008; FICI ([13]; peptide + MER): 0.52; FICI ([13]; peptide + STR): 1.5; FICI ([13]; peptide + TRI): 0.5; mouse deaths ([14]; 5 and 10 mg·Kg^−1 intraperitoneal): all the mice died on the first day; in vivo toxicity [14]: did not decrease the toxicity of CM15; MIC in Cu(II) supplemented medium [15]: 1 µM; MIC [15]: 1 µM; MBIC [16]: 4 µM; MIC [17]: 8 µM; MBIC [18]: 4 µM; MIC [19]: 1 µM; MBIC [20]: 4 µM
2 | VIHKWKLFKKIGAVLKVL [VIH-CM15] | 1 µM | 1 µM | 4 µM | 30 µM | 1 µM | 1 µM | >30 µM | 4 µM | 4 µM | 1.5 | 1.38 | 0.185 and 0.19 | 1.0 | 1.0 | 1 µM | 32 µM | 0.5 µM | 2 µM | 2 µM | 2 µM | MIC [12]: 1 µM; FICI ([13]; peptide + AmP): 2.0; FICI ([13]; peptide + CHL): 1.0 and 1.002; FICI ([13]; peptide + MER): 1.0; FICI ([13]; peptide + STR): 1.29; FICI ([13]; peptide + TRI): 1.0; in vivo toxicity [14]: decreased the toxicity of CM15; MIC in Cu(II) supplemented medium [15]: 1 µM; MIC [15]: 1 µM; MBIC [16]: 4 µM; MIC [17]: 8 µM; MBIC [18]: 4 µM; MIC [19]: 4 µM; MBIC [20]: 8 µM
